# Reference: BindingDB's records for doi:10.1002/cbic.201600598 (Griffith University, 2017)
# Target: Carbonic anhydrase 2 (Homo sapiens, UniProt P00918)
# Test: Fluorescence-Based CA II Binding Assay
# Settings: pH 7; 25 °C
# Procedure: The assay was performed according to a previously reported protocol.[Banerjee et al., Biochemistry, 44:3673-3682] DNSA stock solution was prepared at 1 mm in DMSO/water (1:1). CA II (1 mm) was added to the test probe (over a 0.1-100 mm concentration range) in HEPES buffer [HEPES (25 mm) with acetonitrile (10 %), pH 7.0] and mixed well. DNSA (0.1 mm) was added, and the resulting solution was incubated at RT for 10 min and then transferred into a black-wall 96-well plate (final volume […]). The fluorescence was measured with a Spectra Max 250 plate reader (Molecular Devices, Sunnyvale, CA, USA) at an excitation of 285 nm and emission of 465 nm at 25 °C.
row,Compound,IC50
1,"C#CCOCCOCCOCCOCCNC(=O)c1ccc(S(N)(=O)=O)cc1 [N-(3,6,9,12-Tetraoxapentadec-14-ynyl)-4-sulfamoylbenzamide (13)]",0.288 µM
2,"C#CCOCCOCCOCCOCCOCCC(=O)Nc1ccc(C(=O)c2ccc(NC(=O)CCNC(=O)c3ccccc3)cc2)cc1 [N-(4-{4-[3-(Phenylformamido)propanamido]benzoyl}phenyl)-4,7,10,13,16-pentaoxanonadec-18-ynamide (12)]",> 5000 µM
3,"C#CCOCCOCCOCCOCCOCCC(=O)Nc1ccc(C(=O)c2ccc(NC(=O)CCNC(=O)c3ccc(S(N)(=O)=O)cc3)cc2)cc1 [N-[4-(4-{3-[(4-Sulfamoylphenyl)formamido]propanamido}benzoyl)phenyl]-4,7,10,13,16-pentaoxanonadec-18-ynamide (1)]",0.216 µM
4,"C#CCOCCOCCOCCOCCOCCC(=O)N[C@@H](Cc1cn(-c2ccc(C(=O)c3ccccc3)cc2)nn1)C(=O)NCCc1ccc(S(N)(=O)=O)cc1 [N-[(1S)-2-[1-(4-Benzoylphenyl)-1,2,3-triazol-4-yl]-1-{[2-(4-sulfamoylphenyl)ethyl]carbamoyl}ethyl]-4,7,10,13,16-pentaoxanonadec-18-ynamide (7)]",0.604 µM
5,"CCCOCCOCCOC#COCCOCCC(=O)N[C@@H](Cc1cn(-c2ccc(C(=O)c3ccccc3)cc2)nn1)C(=O)Nc1ccccc1 [N-[(1S)-2-[1-(4-Benzoylphenyl)-1H-1,2,3-triazol-4-yl]-1-(phenylcarbamoyl)ethyl]-4,7,10,13,16-pentaoxanonadec-8-ynamide (15)]",> 5000 µM
6,"C#CCOCCOCCOCCOCCOCCC(=O)N[C@@H](Cc1cn(-c2ccc(C(=O)c3ccccc3)cc2)nn1)C(=O)Nc1ccc(S(N)(=O)=O)cc1 [N-[(1S)-2-[1-(4-Benzoylphenyl)-1H-1,2,3-triazol-4-yl]-1-[(4-sulfamoylphenyl)carbamoyl]ethyl]-4,7,10,13,16-pentaoxanonadec-18-ynamide (9)]",1.55 µM
7,"C#CCOCCOCCOCCOCCOCCC(=O)N[C@@H](Cc1cn(-c2ccc(C(=O)c3ccccc3)cc2)nn1)C(=O)NCc1ccc(S(N)(=O)=O)cc1 [N-[(1S)-2-[1-(4-Benzoylphenyl)-1H-1,2,3-triazol-4-yl]-1-{[(4-sulfamoylphenyl)methyl]carbamoyl}ethyl]-4,7,10,13,16-pentaoxanonadec-18-ynamide (8)]",3.1 µM
8,"C#CCOCCOCCOCCOCCOCCC(=O)Nc1ccc(C(=O)c2ccc(NC(=O)CCCC(=O)Nc3cccc(S(N)(=O)=O)c3)cc2)cc1 [N-{4-[4-(4,7,10,13,16-Pentaoxanonadec-18-ynamido)benzoyl]-phenyl}-N’-(3-sulfamoylphenyl)pentanediamide (5)]",0.914 µM
9,"C#CCOCCOCCOCCOCCOCCC(=O)Nc1ccc(C(=O)c2ccc(NC(=O)CCCC(=O)Nc3ccc(S(N)(=O)=O)cc3)cc2)cc1 [N-{4-[4-(4,7,10,13,16-Pentaoxanonadec-18-ynamido)benzoyl]-phenyl}-N’-(4-sulfamoylphenyl)pentanediamide (4)]",0.36 µM
10,"C#CCOCCOCCOCCOCCOCCC(=O)Nc1ccc(C(=O)c2ccc(NC(=O)CCCC(=O)NCCc3ccc(S(N)(=O)=O)cc3)cc2)cc1 [N-{4-[4-(4,7,10,13,16-Pentaoxanonadec-18-ynamido)benzoyl]-phenyl}-N’-[2-(4-sulfamoylphenyl)ethyl]pentanediamide (2)]",0.502 µM
11,"C#CCOCCOCCOCCOCCOCCC(=O)Nc1ccc(C(=O)c2ccc(NC(=O)CCCC(=O)NCc3ccc(S(N)(=O)=O)cc3)cc2)cc1 [N-{4-[4-(4,7,10,13,16-Pentaoxanonadec-18-ynamido)benzoyl]-phenyl}-N’-[(4-sulfamoylphenyl)methyl]pentanediamide (3)]",1.22 µM
12,"C#CCOCCOCCOCCOCCOCCC(=O)Nc1ccc(C(=O)c2ccc(NC(=O)c3ccc(S(N)(=O)=O)cc3)cc2)cc1 [N-{4-[4-(4-Sulfamoylbenzamido)benzoyl]phenyl}-4,7,10,13,16-pentaoxanonadec-18-ynamide (6)]",0.8 µM
13,"C#CCOCCOCCOCCOCCOCCC(=O)N[C@@H](Cc1cn(-c2ccc(C(=O)c3ccccc3)cc2)nn1)C(=O)Nc1cccc(S(N)(=O)=O)c1 [N-{(1S)-2-[1-(4-Benzoylphenyl)-1H-1,2,3-triazol-4-yl]-1-[(3-sulfamoylphenyl)carbamoyl]ethyl}-4,7,10,13,16-pentaoxanonadec-18-ynamide (10)]",2.03 µM
14,"C#CCOCCOCCOCCOCCOCCC(=O)N[C@@H](Cc1cn(-c2ccc(C(=O)c3ccccc3)cc2)nn1)C(=O)Nc1nnc(S(N)(=O)=O)s1 [N-{(1S)-2-[1-(4-Benzoylphenyl)-1H-1,2,3-triazol-4-yl]-1-[(5-sulfamoyl-1,3,4-thiadiazol-2-yl)carbamoyl]ethyl}-4,7,10,13,16-pentaoxanonadec-18-ynamide (11)]",0.139 µM
